From patent US11000033B2, “Ketone or oxime compound, and herbicide” (NISSAN CHEMICAL CORPORATION, priority 2014, dated 2021)

Experiments:
Type in all cases: in vivo
Stellaria media = assay: Test Example 4: herbicidal effect by soil treatment (symbol P); conditions: application herbicide amount 320 g/ha
In short: (§1)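 Seeds were sown in sterilized diluvial soil, covered with about 1.5 cm of soil, and the soil surface was sprayed with a water-diluted emulsion of the compound at a predetermined rate. Plants grew in a greenhouse at 25° C. to 30° C.; effects were scored visually 3 weeks after application.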

Alopecurus myosuroides [1] = assay: Test Example 5: herbicidal effect by foliage application, plastic box (symbol J); conditions: 320 g/ha, 3 weeks after application
In short: (§2)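 Seeds were sown in sterilized diluvial soil, covered with about 1.5 cm of soil and grown 14 days in a greenhouse at 25° C. to 30° C. An emulsifiable formulation diluted in water to a set rate was sprayed over foliage, and injury was scored 3 weeks later.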

Amaranthus retroflexus [2] = assay: Test Example 5: herbicidal effect by foliage application, plastic box (symbol N); conditions: 320 g/ha, 3 weeks after application
In short: as §2

Avena fatua = assay: Test Example 4: herbicidal effect by soil treatment (symbol I); conditions: application herbicide amount 320 g/ha
In short: as §1

Setaria viridis [3] = assay: Test Example 5: herbicidal effect by foliage application, plastic box (symbol G); conditions: 320 g/ha, 3 weeks after application
In short: as §2

Digitaria ciliaris = assay: Test Example 5: herbicidal effect by foliage application, plastic box (symbol F); conditions: 320 g/ha, 3 weeks after application
In short: as §2

Lolium multiflorum Lam. = assay: Test Example 4: herbicidal effect by soil treatment (symbol K); conditions: application herbicide amount 320 g/ha
In short: as §1

rice = assay: Test Example 4: effect on crop by soil treatment (symbol b); conditions: application herbicide amount 320 g/ha
In short: (§3)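 The test used sterilized diluvial soil. Seed was set down in spots and overlaid with about 1.5 cm of soil before growth in a greenhouse kept at 25° C. to 30° C.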

Galium spurium [4] = assay: Test Example 4: herbicidal effect by soil treatment (symbol Q); conditions: application herbicide amount 320 g/ha
In short: as §1

[5] = test system: Echinochloa crus-galli var. crus-galli; assay: Test Example 5: herbicidal effect by foliage application, plastic box (symbol H); conditions: 320 g/ha, 3 weeks after application
In short: as §2

Scirpus juncoides = assay: Test Example 1: herbicidal activity, application before weed generation in submerged conditions (symbol B); conditions: application herbicide amount 320 g/ha
In short: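 Scores run 0 to 5 by herbicidal ratio, with 5 meaning 90% or more and 0 meaning 5% or lower, read 3 weeks after treatment. Compound was applied as a diluted emulsion to the water surface of submerged alluvial-soil pots on the day weed seeds were sown.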

wheat [6] = assay: Test Example 5: effect on crop by foliage application, plastic box (symbol e); conditions: 320 g/ha, 3 weeks after application
In short: (§4)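 Foliage-application test plants come from spot sowing in sterilized diluvial soil under a soil layer of about 1.5 cm, grown at 25° C. to 30° C. in a greenhouse.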

corn = assay: Test Example 4: effect on crop by soil treatment (symbol c); conditions: application herbicide amount 320 g/ha
In short: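 Seeds were sown in spots on sterilized diluvial soil in a plastic box and covered with about 1.5 cm of soil. Plants were then grown in a greenhouse at 25° C. to 30° C.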

Alopecurus myosuroides [7] = assay: Test Example 4: herbicidal effect by soil treatment (symbol J); conditions: application herbicide amount 320 g/ha
In short: as §1

soybean [8] = assay: Test Example 5: effect on crop by foliage application, plastic box (symbol d); conditions: 320 g/ha, 3 weeks after application
In short: as §4

Amaranthus retroflexus [9] = assay: Test Example 4: herbicidal effect by soil treatment (symbol N); conditions: application herbicide amount 320 g/ha
In short: as §1

Galium spurium [10] = assay: Test Example 5: herbicidal effect by foliage application, plastic box (symbol Q); conditions: 320 g/ha, 3 weeks after application
In short: as §2

Setaria viridis [11] = assay: Test Example 4: herbicidal effect by soil treatment (symbol G); conditions: application herbicide amount 320 g/ha
In short: as §1

soybean [12] = assay: Test Example 4: effect on crop by soil treatment (symbol d); conditions: application herbicide amount 320 g/ha
In short: as §3

Abutilon theophrasti = assay: Test Example 4: herbicidal effect by soil treatment (symbol M); conditions: application herbicide amount 320 g/ha
In short: as §1

wheat [13] = assay: Test Example 4: effect on crop by soil treatment (symbol e); conditions: application herbicide amount 320 g/ha
In short: as §3

rice plant = assay: Test Example 5: effect on crop by foliage application, plastic box (symbol b); conditions: 320 g/ha, 3 weeks after application
In short: as §4

Row | SMILES | Herbicidal effect grade, P: Stellaria media (Stellaria media) | J: Alopecurus myosuroides, herbicidal effect (criteria of Test Example 1) (Alopecurus myosuroides [1]) | N: Amaranthus retroflexus, herbicidal effect (criteria of Test Example 1) (Amaranthus retroflexus [2]) | Herbicidal effect grade, I: Avena fatua (Avena fatua) | G: Setaria viridis, herbicidal effect (criteria of Test Example 1) (Setaria viridis [3]) | F: Digitaria ciliaris, herbicidal effect (criteria of Test Example 1) (Digitaria ciliaris) | Herbicidal effect grade, K: Lolium multiflorum Lam. (Lolium multiflorum Lam.) | Effect on crop grade, b: directly sowed rice plant (rice) | Herbicidal effect grade, Q: Galium spurium (Galium spurium [4]) | H: Echinochloa crus-galli var. crus-galli, herbicidal effect (criteria of Test Example 1) [5] | Herbicidal effect grade, B: Scirpus juncoides (Scirpus juncoides) | e: wheat, effect on crop (criteria of Test Example 1) (wheat [6]) | Effect on crop grade, c: corn (corn) | Herbicidal effect grade, J: Alopecurus myosuroides (Alopecurus myosuroides [7]) | d: soybean, effect on crop (criteria of Test Example 1) (soybean [8]) | Herbicidal effect grade, N: Amaranthus retroflexus (Amaranthus retroflexus [9]) | Q: Galium spurium, herbicidal effect (criteria of Test Example 1) (Galium spurium [10]) | Herbicidal effect grade, G: Setaria viridis (Setaria viridis [11]) | Effect on crop grade, d: soybean (soybean [12]) | Herbicidal effect grade, M: Abutilon theophrasti (Abutilon theophrasti) | other results
1 | CON=C(C)CC1CC(OC(=O)COc2ccccc2)=C(c2c(C)cc(-c3ccccc3)cc2OC)C1=O (stereo not drawn) [6-100] | 4 (Herbicidal ratio of 70% or higher and lower than 90%) | 5 (Herbicidal ratio of 90% or more (almost completely withered)) | 4 (Herbicidal ratio of 70% or higher and lower than 90%) | 5 (Herbicidal ratio of 90% or more (almost completely withered)) | 5 (Herbicidal ratio of 90% or more (almost completely withered)) | 5 (Herbicidal ratio of 90% or more (almost completely withered)) | 5 (Herbicidal ratio of 90% or more (almost completely withered)) | 5 (Herbicidal ratio of 90% or more (almost completely withered)) | 1 (Herbicidal ratio of 5% or higher and lower than 20%) | 5 (Herbicidal ratio of 90% or more (almost completely withered)) | 5 (Herbicidal ratio of 90% or more (almost completely withered)) | 5 (Herbicidal ratio of 90% or more (almost completely withered)) | 4 (Herbicidal ratio of 70% or higher and lower than 90%) | 5 (Herbicidal ratio of 90% or more (almost completely withered)) | 3 (Herbicidal ratio of 40% or higher and lower than 70%) | 5 (Herbicidal ratio of 90% or more (almost completely withered)) | 4 (Herbicidal ratio of 70% or higher and lower than 90%) | 5 (Herbicidal ratio of 90% or more (almost completely withered)) | 0 (Herbicidal ratio of 5% or lower (almost no effect)) | 4 (Herbicidal ratio of 70% or higher and lower than 90%) | Effect on crop grade, e: wheat (wheat [13]): 3 (Herbicidal ratio of 40% or higher and lower than 70%); b: directly sowed rice plant, effect on crop (criteria of Test Example 1) (rice plant): 5 (Herbicidal ratio of 90% or more (almost completely withered))
2 | CON=C(C)CC1CC(O)=C(c2c(OC)cc(C)cc2OC)C1=O (stereo not drawn) [6-103] | 0 (Herbicidal ratio of 5% or lower (almost no effect)) | 5 (Herbicidal ratio of 90% or more (almost completely withered)) | 0 (Herbicidal ratio of 5% or lower (almost no effect)) | 5 (Herbicidal ratio of 90% or more (almost completely withered)) | 5 (Herbicidal ratio of 90% or more (almost completely withered)) | 5 (Herbicidal ratio of 90% or more (almost completely withered)) | 5 (Herbicidal ratio of 90% or more (almost completely withered)) | 5 (Herbicidal ratio of 90% or more (almost completely withered)) | 0 (Herbicidal ratio of 5% or lower (almost no effect)) | 5 (Herbicidal ratio of 90% or more (almost completely withered)) | 0 (Herbicidal ratio of 5% or lower (almost no effect)) | 5 (Herbicidal ratio of 90% or more (almost completely withered)) | 5 (Herbicidal ratio of 90% or more (almost completely withered)) | 5 (Herbicidal ratio of 90% or more (almost completely withered)) | 0 (Herbicidal ratio of 5% or lower (almost no effect)) | 0 (Herbicidal ratio of 5% or lower (almost no effect)) | 0 (Herbicidal ratio of 5% or lower (almost no effect)) | 5 (Herbicidal ratio of 90% or more (almost completely withered)) | 0 (Herbicidal ratio of 5% or lower (almost no effect)) | 0 (Herbicidal ratio of 5% or lower (almost no effect)) | Effect on crop grade, e: wheat (wheat [13]): 5 (Herbicidal ratio of 90% or more (almost completely withered)); b: directly sowed rice plant, effect on crop (criteria of Test Example 1) (rice plant): 5 (Herbicidal ratio of 90% or more (almost completely withered))
3 | CON=C(C)CC1CC(O)=C(c2c(C)cc(-c3cc(F)c(F)c(F)c3)cc2C)C1=O (stereo not drawn) [6-104] | 3 (Herbicidal ratio of 40% or higher and lower than 70%) | 5 (Herbicidal ratio of 90% or more (almost completely withered)) | 5 (Herbicidal ratio of 90% or more (almost completely withered)) | 4 (Herbicidal ratio of 70% or higher and lower than 90%) | 5 (Herbicidal ratio of 90% or more (almost completely withered)) | 5 (Herbicidal ratio of 90% or more (almost completely withered)) | 1 (Herbicidal ratio of 5% or higher and lower than 20%) | 5 (Herbicidal ratio of 90% or more (almost completely withered)) | 4 (Herbicidal ratio of 70% or higher and lower than 90%) | 5 (Herbicidal ratio of 90% or more (almost completely withered)) | 5 (Herbicidal ratio of 90% or more (almost completely withered)) | 5 (Herbicidal ratio of 90% or more (almost completely withered)) | 5 (Herbicidal ratio of 90% or more (almost completely withered)) | 5 (Herbicidal ratio of 90% or more (almost completely withered)) | 3 (Herbicidal ratio of 40% or higher and lower than 70%) | 5 (Herbicidal ratio of 90% or more (almost completely withered)) | 4 (Herbicidal ratio of 70% or higher and lower than 90%) | 5 (Herbicidal ratio of 90% or more (almost completely withered)) | 0 (Herbicidal ratio of 5% or lower (almost no effect)) | 5 (Herbicidal ratio of 90% or more (almost completely withered)) | Effect on crop grade, e: wheat (wheat [13]): 5 (Herbicidal ratio of 90% or more (almost completely withered)); b: directly sowed rice plant, effect on crop (criteria of Test Example 1) (rice plant): 5 (Herbicidal ratio of 90% or more (almost completely withered))
